One series concerns MYC:MAX complex. The series can be described thus: In vitro MYC-MAX binding assay (GST pull-down). The format is biochemical. To be noted: compound 150 μM. The protocol:
To assess whether the new degraders affect direct interaction of MYC with MAX, we employed a pull-down approach using recombinant proteins that correspond to the bHLHZ regions of MYC and MAX. GST-MYC, bound to glutathione sepharose beads, was incubated with the pyrazole compounds, followed by incubation with His-MAX. Finally, the complex of GST-MYC/HisMAX was eluted by the addition of excess glutathione, while the amount of the eluted complex was assessed by western blotting using anti-MAX antibodies (Figure 5).
Figure 5 Inhibition of the formation of the MYC:MAX complex by the pyrazole compounds. The indicated compounds (150 μM), or the solvent alone (DMSO, used as a control), were incubated with GST-MYC containing glutathione beads for 10 min at […], followed by incubation with His-MAX. […] The complex of GST-MYC:His-MAX was eluted by incubation of the beads with free glutathione. The amount of the eluted complex was analyzed by western blotting (presented in the inset), using anti-MAX antibodies, while the protein bands were quantified with the ImageJ software. The intensity of the bands is presented in the bar graph. […] Statistics were based on the unpaired two-tailed student’s t-test. Data are shown as mean ± SEM.
MYC–MAX complex formation assays were performed using recombinantly produced GST-MYC and His-MAX proteins, following the glutathione GST pull-down principle (Lentzaris et al., in preparation). In this assay, recombinant GST-MYC bound to glutathione beads was preincubated with the indicated compound or vehicle […]. As a negative control, empty beads, i.e., not loaded with GST-MYC, were used. The formed complex was eluted with glutathione, while the amount of bound MAX (indicating the amount of the generated complex) was assessed by Western blotting using anti-MAX antibodies (Abcam) and quantified based on the image J free software. All assays were carried out at least three independent times.

Series [1] deals with PC3 cells. The series can be described thus: Cell uptake / intracellular concentration by LC-MS/MS, PC3. The format is in vitro ADME, human. The conditions noted are these: PC3, 24 h incubation with 10 μM. How it is done: Therefore, in order to better comprehend the observed activities of our degraders, following incubation of each compound with cells, the intracellular concentrations of the synthesized derivatives were evaluated in different cancer cell lines, as described previously.[28],[29] SKBR3, PC3, or A549 cells were incubated with PROTACs (at a 10 μΜ concentration) for selected time points, respectively. Upon sample treatment, compounds were extracted and analyzed by LC-MS/MS. Table 1 presents the percentage of the molecule that enters the cells after 24 h incubation at the 10 μM concentration. […] The small molecule MYCi361, used as a binding domain component of MYC, was also evaluated in the cell uptake assay (Table 1).
Cells were plated in 24-well plates at a density of 2 × 10^5 cells/well. 24 h after seeding, cells were incubated with each PROTAC (10 μΜ) for certain time points (1 h, 4 h, 8 h, and 24 h). The incubations were terminated at the selected time points by removing the medium and washing the cells twice with 1 mL cold PBS (1×) in each well in order to remove unbound PROTAC. Subsequently, the cells were lysed by adding a cold solution of ACN:H2O (3:2) and scraping off the cell monolayer. This process was done in two steps: first, 200 μL of ACN:H2O was added, the cells were scraped, and the cell lysate was collected. The second step involved the addition of an extra 100 μL of ACN:H2O, scraping, and collection of the remaining lysate. Samples were subsequently vortexed, sonicated, and centrifuged for 10 min at 13 000 rpm. The supernatants were collected, evaporated for 1 h at 55 °C, and stored at −20 °C until the day of analysis. Samples were then reconstituted in 200 μL of initial mobile phase (100% A), and the intracellular accumulation of PROTACs was determined by LC-MS/MS analysis using Warfarin as a stable internal standard and PROTAC standards for the construction of analytical standard curves.
The percentage of cell uptake was calculated as follows: [drawing 1]

Series [2] concerns PC3 cells. The series can be described thus: Cell viability (MTT) assay, PC3. To be noted: Homo sapiens, PC-3, 72 h, read-out: IC50 (antiproliferative effect). The class given is cell-based, human. The protocol:
The antiproliferative activity of the synthesized compounds was tested in cell viability assays optimally set up for various cancer cell lines (results are depicted in Table 2, n = 3, average IC50 (μM) ± SD).
Cells were plated at a density of 5 × 10^3 cells per well on 96-well plates. After 24 h of incubation (37 °C, 5% CO2), the cell medium was removed, and compounds were added at selected concentrations (0.1–100 μM), followed by incubation for 72 h. Control cells were treated with 0.4% DMSO medium to match the conditions in the wells where drugs were added. After 72 h, the medium was removed, and the 3-(4,5-dimethylthiazol-2-yl)-2,5-diphenyltetrazolium bromide (MTT) solution (0.3 mg/mL in PBS) was added to cells for 3 h under no light conditions. The MTT solution was removed, and the formazan crystals were dissolved in 100 μL of DMSO. The optical density was measured at 570 nm with a reference wavelength of 690 nm using an absorbance microplate reader (SpectraMax 190, Molecular Devices, Sunnyvale, CA, USA). The half-maximal inhibitory concentration (IC50) was calculated based on a four-parameter logistic equation, generating a cell viability curve, using GraphPad Prism 6.01 (GraphPad Software, Inc.). Two concentrations of an established drug, Docetaxel (100 nM and 1 nM), were used in each experiment as a positive control. The resulting absorbance values were used instead of IC50 calculation. Each point was the result of three independent experiments performed in triplicate.

Consider three compounds from PMC11650737, “Developing MYC Degraders Bearing the Von Hippel–Lindau Ligand to Target the “Undruggable” MYC” (ACS Pharmacology & Translational Science, 2024).

Each structure is given as a SMILES string. Several values for one entry are separate records, joined by “and”; a condition that tells them apart may be missing. Equal values may be shown once. Entries after “also recorded” stand apart in the source; their conditions may differ.

As to `Cc1ncsc1-c1ccc(CNC(=O)[C@@H]2C[C@@H](O)CN2C(=O)[C@@H](NC(=O)CCC(=O)NCCCOc2ccc(-c3cc(C(F)(F)F)nn3C)c(O)c2-c2cc(C(F)(F)F)cc(C(F)(F)F)c2)C(C)(C)C)cc1` [CSI86], the “inhibition of MYC:MAX complex formation (binding of His-MAX to GST-MYC)” value in the series with MYC:MAX complex is “no effect on MYC/MAX dimerization”. Moreover, the Uptake by cells in the series on PC3 cells [1] is 19% and 19 ± 4%. Also, the concentration for half-maximal inhibition (IC50) in the series on PC3 cells [2] stood at 18 ± 7 µM.
With `Cc1ncsc1-c1ccc(CNC(=O)[C@@H]2C[C@@H](O)CN2C(=O)[C@@H](NC(=O)CCCC(=O)NCCCOc2ccc(-c3cc(C(F)(F)F)nn3C)c(O)c2-c2cc(C(F)(F)F)cc(C(F)(F)F)c2)C(C)(C)C)cc1` [CSI107], in the series on MYC:MAX complex, the “inhibition of MYC:MAX complex formation (binding of His-MAX to GST-MYC)” value is recorded as “inhibited the binding of HisMAX to MYC; also recorded: inhibits dimerization”. The Uptake by cells with PC3 cells [1] is 13% and 13 ± 3%. The IC50 in the series with PC3 cells [2] worked out at 13 ± 7 µM.
`Cc1ncsc1-c1ccc(CNC(=O)[C@@H]2C[C@@H](O)CN2C(=O)[C@@H](NC(=O)COCCOCC(=O)NCCCOc2ccc(-c3cc(C(F)(F)F)nn3C)c(O)c2-c2cc(C(F)(F)F)cc(C(F)(F)F)c2)C(C)(C)C)cc1` [CSI135]: the IC50 in the series on PC3 cells [2] was 25 ± 2 µM.

What is called IC50 is the concentration that gives 50% inhibition.
